The source of these data is US5626883A, “Ascorbic acid compositions providing enhanced human immune system activity” (priority 1994, dated 1997).

The test system of series [1] is breast and gastric cancer. The note with it: cited from earlier work.
For another series, the system named is glutathione. The note with it: 500 mg/day; cited from earlier work.
Series [2] concerns K562 tumor target cells. The experiment in a line: NK cell activity with repeated administration every four hours, Example 2. Type of series: in vivo, human. The note with it: 15 mg/kg ascorbic acid or biologically equivalent amount every four hours, twenty-four hours. As for the experimental part: (§1) Chromium-release Assay for measuring NK cell activity:
(§2) A standard 4-hr ^51 Cr-release assay was employed. Briefly, 1×10^4 ^51 Cr-labelled K562 tumor target cells in
(§3) 0.1 ml CM were added to different wells of a microtiter plate. Effector cells were then pipetted into quadruplicate wells to give effector: target (E:T) ratios of 6:1, 12:1, 25:1 and 50:1. After a 4-hr incubation at 37° C., the microtiter plates were centrifuged at 1400 rpm for 5 min and 0.1 ml of supernatant from each well was collected and counted in a gamma counter. The percentages of isotope released were calculated by the following formula: [formula]
(§4) Total release was measured by adding […] Triton X-100 to designated wells. Lytic units (LU) were calculated from effector titration curves. One LU was defined as the number of effector cells required to achieve 20% lysis.

In a further series the test system is NK cell population. Put plainly: NK cell population and sub-populations by flow cytometry, Example 1. It counts as in vivo, human. Conditions: 0 and 24 hours post treatment; Anti-CD56 and Anti-CD3. As to the method: NK cell subset enumeration was carried out in ascorbate-treated and non-treated cell populations. A single laser flow cytometer (Epics Profile: Coulter Epics, Inc., Hialeah, Fla.), which discriminates forward and right-angle light scatter, as well as two colors, was used with an appropriate software package (Quad Stat: Coulter). Mononuclear cell populations were determined by two-color direct immunofluorescence, by using a whole-blood staining technique with the appropriate monoclonal antibody and flow cytometry. […]
lymphocyte markers, bit maps were set on the lymphocyte population of the forward-angle light scatter versus a 90° light scatter histogram. The percentage of positively stained cells for each marker pair, as well as the percentage of doubly stained cells, was determined. Estimates of the absolute numbers of lymphocyte positive for the respective surface markers were determined by multiplying peripheral lymphocyte cell count by the percentage of cells positive for each surface marker.
Total NK cell population and its sub-populations were also examined in this example. The total NK cell population and its sub-populations were determined both post-treatment with ascorbic acid alone and post-treatmentwith the formulation of the present invention by flow cytometry, using Anti-CD56 and Anti-CD3 monoclonal antibodies, respectively.

Series [3] has as its system peripheral blood leukocyte (PBL). Put plainly: clinical. The note with it: human, in vivo, 0 min. As for the experimental part: (§5) Lymphocytes were prepared from fresh heparinized peripheral venous blood by Ficoll-Hypaque density gradient centrifugation (Litton Bionetics, Rockville, Md.). Cells were washed three times with Hanks' balanced salt solution (HBSS), and resuspended to a concentration of 10×10^6 cells/ml in a complete medium (CM), that consisted of RPMI-1640 supplemented with 10% fetal calf serum and 1% antibiotics (100 U penicillin and 100 μg/ml streptomycin) and within an hour of isolation cells were used for different assays.

A short description of series [4]: clinical. The note with it: human, in vivo, 60 mg/kg. As to the method: as §5
A short description of series [5]: clinical. The note with it: human, plasma, 60 mg/kg.
Experimental: Twenty-two healthy subjects were randomly selected for this example. The subjects ranged in age from 20 to 24 years, with a mean of 22 years. The subjects had not ingested any medications for at least two weeks before participation in the study.
Clearance and the uptake of ascorbic acid was measured in the plasma and mononuclear cell, respectively.
Briefly described, 5×10^6 cells were suspended in 0.2 ml of PBS, sonicated for 30 seconds, and 1 ml of 5% trichloroacetic acid (TCA) was added. The mixture was centrifuged to remove the precipitates and the supernatant was used to measure the level of ascorbic acid. From the mixture, 1.2 ml of this supernatant or 0.5 ml plasma was mixed with 0.4 ml of Dinitrophenyl-hydrazine-Thiourea-Copper (DCT) reagent, incubated at 37° C. for 3 hours, then transferred to an ice-water bath for 10 minutes. Then 2 ml of cold 12M H2 SO4 was added and the mixture was kept at room temperature for 20 min.
For series [6], the system named is K562 tumor target cells. Put plainly: NK cell cytotoxic activity (4-hr 51Cr-release assay) before and after oral administration to healthy subjects, Example 1. It counts as in vivo, human. As to the method: This example compares the effect of ascorbic acid and the formulation of the present invention on NK cell activity, NK cell population, and peripheral blood leukocyte (PBL) uptake.
as §5, §1, §2, §3, §4
In FIG. 1A the NK cell activity is represented in lytic units (LU) on the vertical axis with time being represented in hours on the horizontal axis.
In FIG. 1B, the hollow bars represent the subject's NK cell activity before administration of either ascorbic acid alone or the formulation of the present invention.

Series [7] relates to skin tumors and estrogen-induced renal tumors. The note with it: in vivo; cited from earlier work.

On to `O=C1O[C@H]([C@@H](O)CO)C(O)=C1O` [ascorbic acid, 3-oxo-1-gulofuranolactone], for which, in series [1], the antitumor activity entry was “demonstrates antitumor activity against breast and gastric cancer”. For the same molecule, the “plasma concentrations of glutathione” value in the series with glutathione is listed as “increases plasma concentrations of glutathione”. The NK cell activity result with K562 tumor target cells [2] is on record as “repeated suppression of NK cell activity”. Also, the “percentages of total NK cell population, or its sub-populations” value in the series on NK cell population is given as “no significant effect”. The “mean (M±SD) uptake of ascorbic acid by 5×10^6 white blood cells” value in series [3] was determined as 5.1 μg/dl. In addition, in “clinical [4]”, the concentration at 1 h turned out to be 0.064 µg/mL, the concentration at 2 h stood at 0.101 µg/mL, the concentration at 4 h is 0.095 µg/mL and the concentration at 8 h was determined as 0.079 µg/mL. Besides, in the series “clinical [4]”, the concentration at 24 h is 0.074 µg/mL and the concentration at 48 h is 0.049 µg/mL. This molecule returned a concentration at 1 h in “clinical [5]” of about 42 µg/mL. The molecule further returned an NK cell activity with K562 tumor target cells [6] (60 mg/kg ascorbic acid, twenty-four hours post-administration, FIG. 1A) of 90 LU. Moreover, the NK cell activity result with K562 tumor target cells [6] (60 mg/kg, forty-eight hours, FIG. 1A) was “declined to near pre-administration levels”. For the same molecule, the “NK cell activity change” value in the series with K562 tumor target cells [6] (60 mg/kg, one to two hours after administration, FIG. 1A) is listed as “transitory decrease in NK cell activity”. In addition, the “time of recovery of NK cell activity to pre-administration levels” value in the series with K562 tumor target cells [6] (60 mg/kg, post-administration, FIG. 1A) is reported as “about four”. Also, the “period of inhibition of NK cell activity” value with K562 tumor target cells [6] (early transient phase, followed by enhancement) is on record as “two to four”. In addition, the “overall suppression of NK cell activity (summary)” value in the series on K562 tumor target cells [6] (shortly after administration) is listed as “transient suppression or inhibition of NK cell activity”. Besides, the “suppression of NK cell activity” value in the series on K562 tumor target cells [6] (zero to four hours post-administration, FIG. 1A) is on record as “transient suppression of NK cell activity”. Further, the tumor regression entry in series [7] was “causes regression of skin tumors and estrogen-induced renal tumors in vivo”.
